Data published in patent US10780061B2, “Composition comprising farnesol and use thereof” (Daegu Gyongbuk Institute of Science and Technology, priority 2014, dated 2020).

What was measured:
PARIS, PGC-1α [1] = test: Western blotting of hind limb muscles, high fat diet for 3 months; assay type: in vivo, mouse; conditions: high fat diet with 0.5% compound
From the text: (§1) To prepare the PGC-1α-inhibited model, 3-month-old mouse (female, body weight of 20 g) is fed with high fat diet, in which fat is increased to 60%, compared to a negative control group, for 5 days (short-term effect) or 3 months (long-term effect). The negative control group is fed with a general diet. Farnesol is mixed in the high fat diet at a content of 0.5% (weight of farnesol/weight of diet). A positive control group is fed with high fat diet containing a type II diabetes drug, metformin at a content of 0.5% (weight of metformin/weight of diet). Mice are fed with the general diet, the high fat diet, and the high fat diet containing farnesol or metformin for 3 months, and then hind limbs are removed to analyze muscle differentiation and mitochondrial enzyme activity.

PARIS, PGC-1α [2] = test: Immunoprecipitation for PGC-1α expression and PARIS-farnesylation, short-term high fat diet; assay type: in vivo, mouse; conditions: high fat diet with 0.5% compound, 5 days, gastrocnemius muscles
From the text: as §1
The effects of high fat diet and farnesol and metformin on PGC-1α induction by PARIS-farnesylation are evaluated. To analyze effect of short-term high fat diet, mice are fed with the above conditions for 5 days. Immunoblotting of PGC-1α and PARIS in gastrocnemius muscles of the mice is performed.
In this regard, PARIS-farnesylation is normalized to the immunoprecipitated PARIS expression level.

SDH enzyme activity = test: SDH staining of hind limb muscles, high fat diet model; assay type: in vivo, mouse; conditions: high fat diet with 0.5% compound, 3 months
From the text: as §1

[3] = tested on: Myh2a-positive muscle fibers; test: Myh2a immunostaining of hind limb muscles, high fat diet (PGC-1α-inhibited) model; assay type: in vivo, mouse; conditions: high fat diet with 0.5% compound, 3 months
From the text: as §1
In FIG. 6C, SD represents a standard diet as a negative control group, HFD represents a high fat diet, and HFD+Farnesol or HFD-metformin represents farnesol or metformin-added HFD, respectively.

[4] = for reference; cited from earlier work

CN(C)C(=N)N=C(N)N [metformin, reference compound]
decreased PGC-1α expression by high fat diet (PARIS, PGC-1α [1]): inhibited
increased PARIS level by high fat diet (PARIS, PGC-1α [1]): inhibited
reduction in PARIS-farnesylation by high fat diet (PARIS, PGC-1α [2]): inhibited
reduction in PGC-1α expression by high fat diet (PARIS, PGC-1α [2]): inhibited
percentage of muscle fibers showing increased SDH enzyme activity (SDH enzyme activity): increased
percentage of Myh2a-postive muscle fibers [3]: significantly increases

CC(=O)Oc1ccccc1C(=O)O [aspirin]
ID50 [4]: 250 mg/kg
